Source: patent publication US20150246902A1, “SUBSTITUED BENZOFURAN COMPOUNDS AND METHODS OF USE THEREOF FOR THE TREATMENT OF VIRAL DISEASES” (priority 2011, published 2015)

Legend:
HCV replicon genotype 1b = experiment: microbe, parasite or virus in culture; assay type: cell-based; conditions: Hepatitis C virus, 96 h, HCV genotype 1b replicon cells, 96 hours incubation, NS3/4A ELISA readout
HCV replicon genotype 1a = experiment: microbe, parasite or virus in culture; assay type: cell-based; conditions: Hepatitis C virus, 96 h, HCV genotype 1a replicon cells, 96 hours incubation, NS3/4A ELISA readout

| Structure (SMILES) | IC50 (HCV replicon genotype 1b) | IC50 (HCV replicon genotype 1a) |
| --- | --- | --- |
| CNC(=O)c1c(-c2ccc(F)cc2)oc2cc(N(C)S(C)(=O)=O)c(-c3ccc4ccn(-c5cccc(F)c5)c4c3)cc12 [Compound 60] | 0.0044 µM | 0.0454 µM |
| CNC(=O)c1c(-c2ccc(F)cc2)oc2cc(N(C)S(C)(=O)=O)c(-c3cc(F)c4ncn(-c5ccc(F)cc5)c4c3)cc12 [Compound 28] | 0.0033 µM | 0.0042 µM |
| CNC(=O)c1c(-c2ccc(F)cc2)oc2cc(N(C)S(C)(=O)=O)c(-c3ccc4ncn(-c5ccccc5C(F)(F)F)c4c3)cc12 [Compound 9] | 0.0071 µM | 0.0758 µM |
| CNC(=O)c1c(-c2ccc(F)cc2)oc2cc(N(C)S(C)(=O)=O)c(-c3ccc4ccn(-c5cc(F)cc(F)c5)c4n3)cc12 [Compound 65] | 0.115 µM | 1.53 µM |
| CNC(=O)c1c(-c2ccc(F)cc2)oc2cc(N(C)S(C)(=O)=O)c(-c3ccc4ncn(-c5ccc(C#N)cc5)c4c3)cc12 [Compound 5] | 0.0008 µM | 0.0021 µM |
| CNC(=O)c1c(-c2ccc(F)cc2)oc2cc(N(C)S(C)(=O)=O)c(-c3ccc4ncn(-c5ccc(F)cn5)c4c3)cc12 [Compound 35] | 0.0059 µM | 0.0352 µM |
| CNC(=O)c1c(-c2ccc(F)cc2)oc2cc(N(C)S(C)(=O)=O)c(-c3ccc4[nH]c(-c5ccccc5)nc4n3)cc12 [Compound 101] | 0.017 µM | 0.0791 µM |
| CNC(=O)c1c(-c2ccc(F)cc2)oc2cc(N(C)S(C)(=O)=O)c(-c3ccc4nnc(-c5ccc(F)cc5)n4c3)cc12 [Compound 111, 2-(4-fluorophenyl)-5-(3-(4-fluorophenyl)-[1,2,4]triazolo[4,3-a]pyridin-6-yl)-N-methyl-6-(N-methylmethylsulfonamido)benzofuran-3-carboxamide] | 0.0019 µM | 0.0048 µM |
| CNC(=O)c1c(-c2ccc(F)cc2)oc2cc(N(C)S(C)(=O)=O)c(-c3ccc4[nH]cc(-c5ccncc5)c4c3)cc12 [Compound 71] | 0.0045 µM | 0.0215 µM |
| CNC(=O)c1c(-c2ccc(F)cc2)oc2cc(N(C)S(C)(=O)=O)c(-c3cn4c(-c5ccc(F)cc5)cnc4cn3)cc12 [Compound 91, 2-(4-fluorophenyl)-5-(3-(4-fluorophenyl)imidazo[1,2-a]pyrazin-6-yl)-N-methyl-6-(N-methylmethylsulfonamido)benzofuran-3-carboxamide] | 0.0081 µM | 0.0482 µM |
| CNC(=O)c1c(-c2ccc(F)cc2)oc2cc(N(C)S(C)(=O)=O)c(-c3ccc4ncn(-c5ccccc5)c4c3)cc12 [Compound 2] | 0.0025 µM | 0.0132 µM |
| CNC(=O)c1c(-c2ccc(F)cc2)oc2cc(N(C)S(C)(=O)=O)c(-c3ccc4oc(Cc5ccc(F)cc5)nc4n3)cc12 [Compound 84, 5-(2-(4-fluorobenzyl)oxazolo[4,5-b]pyridin-5-yl)-2-(4-fluorophenyl)-N-methyl-6-(N-methylmethylsulfonamido)benzofuran-3-carboxamide] | 0.0086 µM | 0.0537 µM |
| CNC(=O)c1c(-c2ccc(F)cc2)oc2cc(N(C)S(C)(=O)=O)c(-c3ccc4[nH]nc(-c5ccc(C(F)(F)F)cc5)c4c3)cc12 [Compound 75] | 0.0073 µM | 0.008 µM |
| CNC(=O)c1c(-c2ccc(F)cc2)oc2cc(N(C)S(C)(=O)=O)c(-c3ccc4ccn(-c5ccc(F)cc5)c4c3)cc12 [Compound 59] | 0.0052 µM | 0.0153 µM |
| CNC(=O)c1c(-c2ccc(F)cc2)oc2cc(N(C)S(C)(=O)=O)c(-c3ccc4ncc(-c5ccc(F)cc5)n4c3)cc12 [Compound 112, 2-(4-fluorophenyl)-5-(3-(4-fluorophenyl)imidazo[1,2-a]pyridin-6-yl)-N-methyl-6-(N-methylmethylsulfonamido)benzofuran-3-carboxamide] | 0.0071 µM | 0.0124 µM |
| CNC(=O)c1c(-c2ccc(F)cc2)oc2cc(N(C)S(C)(=O)=O)c(-c3cc(F)c4nc(C)n(-c5cc(F)cc(F)c5)c4c3)cc12 [Compound 34] | 0.0043 µM | 0.0248 µM |
| CNC(=O)c1c(-c2ccc(F)cc2)oc2cc(N(C)S(C)(=O)=O)c(-c3ccc4c(c3)ncn4-c3cccnc3)cc12 [Compound 22] | 0.0033 µM | 0.0144 µM |
| CNC(=O)c1c(-c2ccc(F)cc2)oc2cc(N(C)S(C)(=O)=O)c(-c3ccn4cc(-c5ccccc5)nc4c3)cc12 [Compound 89] | 0.0027 µM | 0.007 µM |
| CNC(=O)c1c(-c2ccc(F)cc2)oc2cc(N(C)S(C)(=O)=O)c(-c3ccc4nc(-c5ccccc5)cn4c3)cc12 [Compound 88, 2-(4-fluorophenyl)-N-methyl-6-(N-methylmethylsulfonamido)-5-(2-phenylimidazo[1,2-a]pyridin-6-yl)benzofuran-3-carboxamide] | 0.007 µM | 0.0501 µM |
| CNC(=O)c1c(-c2ccc(F)cc2)oc2cc(N(C)S(C)(=O)=O)c(-c3ccc4[nH]c(-c5ccccc5)cc4c3)cc12 [Compound 103, 2-(4-fluorophenyl)-N-methyl-6-(N-methylmethylsulfonamido)-5-(2-phenyl-1H-indol-5-yl)benzofuran-3-carboxamide] | 0.101 µM | 1.1 µM |

| Structure (SMILES) | IC50 (HCV replicon genotype 1b) | IC50 (HCV replicon genotype 1a) |
| --- | --- | --- |
| CNC(=O)c1c(-c2ccc(F)cc2)oc2cc(N(C)S(C)(=O)=O)c(-c3cc(F)c4nc(N)n(-c5cc(F)cc(F)c5)c4c3)cc12 [Compound 79] | 0.0031 µM | 0.0314 µM |
| CNC(=O)c1c(-c2ccc(F)cc2)oc2cc(N(C)S(C)(=O)=O)c(-c3cccc4c3ncn4-c3ccccc3)cc12 [Compound 38] | 0.155 µM | 0.629 µM |
| CNC(=O)c1c(-c2ccc(F)cc2)oc2cc(N(C)S(C)(=O)=O)c(-c3ccc4c(ccn4-c4ccc(F)cc4)c3)cc12 [Compound 54] | 0.0141 µM | 0.109 µM |
| CNC(=O)c1c(-c2ccc(F)cc2)oc2cc(N(C)S(C)(=O)=O)c(-c3ccc4ncn(-c5cccc(C(F)(F)F)c5)c4c3)cc12 [Compound 8] | 0.0039 µM | 0.0277 µM |
| CNC(=O)c1c(-c2ccc(F)cc2)oc2cc(N(C)S(C)(=O)=O)c(-c3ccc4ncn(-c5cccc(Cl)c5)c4c3)cc12 [Compound 12] | 0.0026 µM | 0.0117 µM |
| CNC(=O)c1c(-c2ccc(F)cc2)oc2cc(N(C)S(C)(=O)=O)c(-c3ccc4ncn(C5CCN(C(=O)OC(C)(C)C)CC5)c4c3)cc12 [Compound 23] | 0.0082 µM | 0.0367 µM |
| CNC(=O)c1c(-c2ccc(F)cc2)oc2cc(N(C)S(C)(=O)=O)c(-c3ccc4cnn(-c5ccc(C(F)(F)F)cc5)c4c3)cc12 [Compound 107] | 0.0061 µM | 0.0083 µM |
| CNC(=O)c1c(-c2ccc(F)cc2)oc2cc(N(C)S(C)(=O)=O)c(-c3ccc4c(ccn4C(=O)OC(C)(C)C)c3)cc12 [Compound 104, tert-butyl 5-(2-(4-fluorophenyl)-3-(methylcarbamoyl)-6-(N-methylmethylsulfonamido)benzofuran-5-yl)-1H-indole-1-carboxylate] | 0.0189 µM | 0.179 µM |
| CNC(=O)c1c(-c2ccc(F)cc2)oc2cc(N(C)S(C)(=O)=O)c(-c3ncc4ncn(-c5ccc(OC(F)(F)F)cc5)c4n3)cc12 [Compound 39, 2-(4-fluorophenyl)-N-methyl-6-(N-methylmethylsulfonamido)-5-(9-(4-(trifluoromethoxy)phenyl)-9H-purin-2-yl)benzofuran-3-carboxamide] | 0.0824 µM | 1.82 µM |
| CNC(=O)c1c(-c2ccc(F)cc2)oc2cc(N(C)S(C)(=O)=O)c(-c3ccc4ncn(-c5ccc(S(C)(=O)=O)cc5)c4c3)cc12 [Compound 13] | 0.0038 µM | 0.0182 µM |
| CNC(=O)c1c(-c2ccc(F)cc2)oc2cc(N(C)S(C)(=O)=O)c(-c3cc(F)c4nc(C)n(-c5ccc(F)c(C#N)c5)c4c3)cc12 [Compound 32] | 0.0031 µM | 0.0053 µM |
| CNC(=O)c1c(-c2ccc(F)cc2)oc2cc(N(C)S(C)(=O)=O)c(-c3cc(F)c4nc(C)n(-c5ccc(F)c(C(N)=O)c5)c4c3)cc12 [Compound 109, 5-(1-(3-carbamoyl-4-fluorophenyl)-4-fluoro-2-methyl-1H-benzo[d]imidazol-6-yl)-2-(4-fluorophenyl)-N-methyl-6-(N-methylmethylsulfonamido)benzofuran-3-carboxamide] | 0.0211 µM | 0.11 µM |
| CNC(=O)c1c(-c2ccc(F)cc2)oc2cc(N(C)S(C)(=O)=O)c(-c3ccc4ccn(-c5cccnc5)c4c3)cc12 [Compound 52] | 0.0071 µM | 0.0429 µM |
| CNC(=O)c1c(-c2ccc(F)cc2)oc2cc(N(C)S(C)(=O)=O)c(-c3ccc4ccn(Cc5ccc(C(F)(F)F)cc5)c4c3)cc12 [Compound 67, 2-(4-fluorophenyl)-N-methyl-6-(N-methylmethylsulfonamido)-5-(1-(4-(trifluoromethyl)benzyl)-1H-indol-6-yl)benzofuran-3-carboxamide] | 0.0498 µM | 0.132 µM |
| CNC(=O)c1c(-c2ccc(F)cc2)oc2cc(N(C)S(C)(=O)=O)c(-c3cc(-c4cc5ccccc5[nH]4)c4nc(C)cn4c3)cc12 [Compound 99, 5-(8-(1H-indol-2-yl)-2-methylimidazo[1,2-a]pyridin-6-yl)-2-(4-fluorophenyl)-N-methyl-6-(N-methylmethylsulfonamido)benzofuran-3-carboxamide] | 0.0052 µM | 0.0031 µM |
| CNC(=O)c1c(-c2ccc(F)cc2)oc2cc(N(C)S(C)(=O)=O)c(-c3ccc4[nH]nc(-c5ccncc5)c4c3)cc12 [Compound 74] | 0.0054 µM | 0.0206 µM |
| CNC(=O)c1c(-c2ccc(F)cc2)oc2cc(N(C)S(C)(=O)=O)c(-c3ccc4ncn(-c5cc(F)cc(F)c5)c4n3)cc12 [Compound 43] | 0.0173 µM | 0.158 µM |
| CNC(=O)c1c(-c2ccc(F)cc2)oc2cc(N(C)S(C)(=O)=O)c(-c3ccc4nc(-c5ccc(F)cc5)cn4n3)cc12 [Compound 113] | 0.0149 µM | 0.186 µM |
| CNC(=O)c1c(-c2ccc(F)cc2)oc2cc(N(C)S(C)(=O)=O)c(-c3cc(F)c4[nH]c(=O)n(-c5cc(F)cc(F)c5)c4c3)cc12 [Compound 81] | 0.0052 µM | 0.0303 µM |
